These results are taken from US11787788B2, “Benzimidazole derivatives, and pharmaceutical compositions and methods of use thereof” (CAPELLA THERAPEUTICS, INC., priority 2014, dated 2023).

Holding throughout (assay type): cell-based
Assay [1] deals with HCC827 human NSCLC adenocarcinoma cells. Put plainly: Cell proliferation assay, mutant ERBB1 (exon 19 deletion). Conditions: for GI50: Homo sapiens, HCC827, 72 hrs treatment; for Selectivity Ratio (Wild-type ERBB1/Mutant ERBB1) HEKn/HCC827: ratio of GI50 HEKn/HCC827; for Selectivity Ratio (Wild-type ERBB1/Mutant ERBB1) A431/HCC827: ratio of GI50 A431/HCC827. The method, then:
(§1) The biological activity of a test compound was determined using cell proliferation assays. The activity against wild-type ERBB1 was determined using A431 human epidermoid carcinoma cells (ATCC) and human epidermal keratinocytes, neonatal, or HEKn cells (ATCC).
(§2) A431 cells were grown in DMEM (Invitrogen) supplemented with 10% FBS (Lonza), 1% penicillin-streptomycin, and 2 mM glutamine (Invitrogen). HEKn cells were grown in EPILIFE® (Invitrogen) supplemented with HKGS (Invitrogen). HCC827 and H1975 were cultured in RPMI1640 supplemented with 10% FBS (Lonza), 1% penicillin-streptomycin, and 2 mM glutamine (Invitrogen). Cells were maintained and propagated at 37° C. and 5% CO2 in a humidified cell culture incubator. Aliquots of cells from early passages were preserved for liquid nitrogen storage. Frozen vials of cells were thawed at 37° C. water bath. Cells were spun to remove freezing medium. The newly revived frozen cells were adapted in culture for 10 days before used for compound testing. Cells used in the assay were less than 20 subculture passages or 3 months in culture.
(§3) The test compounds were dissolved in dimethylsulfoxide (DMSO) and stored at −20° C. before testing. […] The cells were placed in a culture incubator overnight. Next day, test compounds in DMSO were added to the cells and placed back in the culture incubator for 72 hrs. In the meantime, the cell numbers at time zero of the compound treatment (T0) was measured by ENERCOUNT® (Codex BioSolutions). At the end of the compound treatment, the cell numbers were again measured by EnerCount as T72 values. The untreated controls (Ctrl) were cell numbers recorded from the 0.1% DMSO treatment. The percent growth inhibition by the test compound was calculated by the formula: (1−(T72−T0)/(Ctrl−T0))×100.
(§4) The results are summarized in Tables 1 and 2, wherein A represents a value no greater than 500 nM, B represents a value greater than 500 nM but no greater than 1 μM, C represents a value greater than 1 μM but no greater than 5 μM, and D represents a value greater than 5 μM; and wherein A′ represents a ratio of greater than 10, B′ represents a ratio of no greater than 10 but no less than 5, C′ represents a ratio of no greater than 5 but no less than 2, and D′ represents a ratio of no greater than 2.

Assay [2] relates to human epidermal keratinocytes, neonatal, or HEKn cells. Description: Cell proliferation assay, wild-type ERBB1. The note with it: Keratinocyte, 72 hrs treatment. The method, then:
as §1, §2, §3, §4

Assay [3] deals with H1975 human NSCLC adenocarcinoma cells. Put plainly: Cell proliferation assay, drug-resistant mutant ERBB1 (T790M/L858R). Conditions: for Selectivity Ratio (Wild-type ERBB1/Mutant ERBB1) HEKn/H1975: ratio of GI50 HEKn/H1975; for GI50: Homo sapiens, NCI-H1975, 72 hrs treatment, class symbols; for Selectivity Ratio (Wild-type ERBB1/Mutant ERBB1) A431/H1975: ratio of GI50 A431/H1975. The method, then:
as §1, §2, §3, §4

Assay [4] has as its system A431 human epidermoid carcinoma cells. Put plainly: Cell proliferation assay, wild-type ERBB1. Conditions: A-431, 72 hrs treatment, class symbols. The method, then:
as §1, §2, §3, §4

Take `C=CC(=O)Nc1cccc(Nc2nc(Nc3ccc(N4CCN(C(C)=O)CC4)cc3OC)ncc2C(F)(F)F)c1` [CO-1686, reference compound]: the GI50 is 32 nM in assay [1] (numeric values, unit inferred) and 2500 nM in assay [2] (numeric values, unit inferred). Also, the “Selectivity Ratio (Wild-type ERBB1/Mutant ERBB1) HEKn/HCC827” value in assay [1] was “A′ (A′ represents a ratio of greater than 10)”. Besides, the “Selectivity Ratio (Wild-type ERBB1/Mutant ERBB1) HEKn/H1975” value in assay [3] is recorded as “A′ (A′ represents a ratio of greater than 10)”.
Take `C=CC(=O)N1CCCC[C@@H](n2c(NC(=O)c3ccnc(C)c3)nc3cccc(OC4CCN(CC)CC4)c32)C1` [Compound A1, (R)—N-(1-(1-Acryloylazepan-3-yl)-7-((1-ethylpiperidin-4-yl)oxy)-1H-benzo[d]imidazol-2-yl)-2-methylisonicotinamide]: the GI50 in assay [1] (class symbols) is under 500 nM. Moreover, in assay [1], the “Selectivity Ratio (Wild-type ERBB1/Mutant ERBB1) A431/HCC827” value is recorded as “A′ (A′ represents a ratio of greater than 10)” and the “Selectivity Ratio (Wild-type ERBB1/Mutant ERBB1) HEKn/HCC827” value is “A′ (A′ represents a ratio of greater than 10)”. The same compound showed a GI50 in assay [2] (class symbols) of 1000 to 5000 nM. Moreover, the GI50 in assay [4] was under 500 nM. Further, in assay [3], the GI50 was under 500 nM, the “Selectivity Ratio (Wild-type ERBB1/Mutant ERBB1) A431/H1975” value is “A′ (A′ represents a ratio of greater than 10)” and the “Selectivity Ratio (Wild-type ERBB1/Mutant ERBB1) HEKn/H1975” value is given as “A′ (A′ represents a ratio of greater than 10)”.
In the case of `C=CC(=O)N1CCCC[C@@H](n2c(NC(=O)c3ccnc(C)c3)nc3cccc(OC4CCN(C(C)=O)CC4)c32)C1` [Compound A2, (R)—N-(7-((1-acetylpiperidin-4-yl)oxy)-1-(1-acryloylazepan-3-yl)-1H-benzo[d]imidazol-2-yl)-2-methylisonicotinamide], the GI50 was under 500 nM in assay [1] (class symbols), over 5000 nM in assay [2] (class symbols), 500 to 1000 nM in assay [4] and under 500 nM in assay [3]. In addition, in assay [1], the “Selectivity Ratio (Wild-type ERBB1/Mutant ERBB1) A431/HCC827” value is given as “A′ (A′ represents a ratio of greater than 10)”. The “Selectivity Ratio (Wild-type ERBB1/Mutant ERBB1) HEKn/HCC827” value in assay [1] is “A′ (A′ represents a ratio of greater than 10)”. For the same compound, in assay [3], the “Selectivity Ratio (Wild-type ERBB1/Mutant ERBB1) A431/H1975” value is “B′ (B′ represents a ratio of no greater than 10 but no less than 5)”. The “Selectivity Ratio (Wild-type ERBB1/Mutant ERBB1) HEKn/H1975” value in assay [3] was “A′ (A′ represents a ratio of greater than 10)”.
On to `C=CC(=O)N1CCC(Oc2cccc3nc(NC(=O)c4ccnc(C)c4)n([C@@H]4CCCCN(C(=O)C=C)C4)c23)CC1` [Compound A3, (R)—N-(1-(1-acryloylazepan-3-yl)-7-((1-acryloylpiperidin-4-yl)oxy)-1H-benzo[d]imidazol-2-yl)-2-methylisonicotinamide], for which the GI50 in assay [1] (class symbols) is under 500 nM. Besides, in assay [1], the “Selectivity Ratio (Wild-type ERBB1/Mutant ERBB1) A431/HCC827” value is listed as “A′ (A′ represents a ratio of greater than 10)” and the “Selectivity Ratio (Wild-type ERBB1/Mutant ERBB1) HEKn/HCC827” value is given as “A′ (A′ represents a ratio of greater than 10)”. Further, the concentration for 50% growth inhibition (GI50) in assay [2] (class symbols) lay within 1000 to 5000 nM. The compound also had a concentration for 50% growth inhibition (GI50) in assay [4] of over 5000 nM. In assay [3], the 50% growth inhibitory concentration (GI50) is under 500 nM, the “Selectivity Ratio (Wild-type ERBB1/Mutant ERBB1) A431/H1975” value is given as “B′ (B′ represents a ratio of no greater than 10 but no less than 5)” and the “Selectivity Ratio (Wild-type ERBB1/Mutant ERBB1) HEKn/H1975” value is recorded as “A′ (A′ represents a ratio of greater than 10)”.
As to `C=CC(=O)N1CCCC[C@@H](n2c(NC(=O)c3ccnc(C)c3)nc3cc(OC(F)(F)F)cc(Cl)c32)C1` [Compound A4, (R)—N-(1-(1-Acryloylazepan-3-yl)-7-chloro-5-(trifluoromethoxy)-1H-benzo[d]imidazol-2-yl)-2-methylisonicotinamide], the GI50 in assay [1] (class symbols) is under 500 nM; in assay [2] (class symbols), 1000 to 5000 nM; in assay [4], 1000 to 5000 nM; in assay [3], under 500 nM. Besides, the “Selectivity Ratio (Wild-type ERBB1/Mutant ERBB1) A431/HCC827” value in assay [1] is recorded as “A′ (A′ represents a ratio of greater than 10)”. Also, the “Selectivity Ratio (Wild-type ERBB1/Mutant ERBB1) HEKn/HCC827” value in assay [1] is “A′ (A′ represents a ratio of greater than 10)”. Also, in assay [3], the “Selectivity Ratio (Wild-type ERBB1/Mutant ERBB1) A431/H1975” value is “C′ (C′ represents a ratio of no greater than 5 but no less than 2)”. For the same compound, in assay [3], the “Selectivity Ratio (Wild-type ERBB1/Mutant ERBB1) HEKn/H1975” value is “C′ (C′ represents a ratio of no greater than 5 but no less than 2)”.
Turning to `Cc1cc(C(=O)Nc2nc3cc(OC(F)(F)F)cc(Cl)c3n2[C@@H]2CCCCN(C(=O)/C=C/CN(C)C)C2)ccn1` [Compound A5, (R,E)-N-(7-Chloro-1-(1-(4-(dimethylamino)but-2-enoyl)azepan-3-yl)-5-(trifluoromethoxy)-1H-benzo[d]imidazol-2-yl)-2-methylisonicotinamide], the GI50 was under 500 nM in assay [1] (class symbols), 1000 to 5000 nM in assay [2] (class symbols), 1000 to 5000 nM in assay [4] and under 500 nM in assay [3]. The “Selectivity Ratio (Wild-type ERBB1/Mutant ERBB1) A431/HCC827” value in assay [1] is “A′ (A′ represents a ratio of greater than 10)”. Besides, the “Selectivity Ratio (Wild-type ERBB1/Mutant ERBB1) HEKn/HCC827” value in assay [1] was “A′ (A′ represents a ratio of greater than 10)”. For the same compound, the “Selectivity Ratio (Wild-type ERBB1/Mutant ERBB1) A431/H1975” value in assay [3] is “C′ (C′ represents a ratio of no greater than 5 but no less than 2)”. In assay [3], the “Selectivity Ratio (Wild-type ERBB1/Mutant ERBB1) HEKn/H1975” value was “A′ (A′ represents a ratio of greater than 10)”.
